Format in all cases: physicochemical
A short description of data set [1]: Density of dry powder by Transaxial Pressure (TAP), Micromeritics GeoPyc 1360. To be noted: consolidation force of 8 Newtons.
Data set [2] is described as follows: Drug integrity post processing by HPLC. As for the experimental part:
Drug integrity post processing was assessed by High Pressure Liquid Chromatography (“HPLC”) (Hewlett Packard Series 1100 HPLC). […] For paclitaxel, the chromatographic conditions included a Nucleosil column (5:m, C18, 100A, 250×4.6 mm), a mobile phase of 2 mM H3PO4/Acetonitrile (2:3) at a flow rate of 1.5 mL/min, UV detection at 227 nm, and a run time of 25 min.

A short description of data set [3]: Particle size and surface area of drug particles in wetted matrices, Coulter Multisizer II. As to conditions: reconstituted in aqueous media; electrolyte pre-saturated with drug. As for the experimental part:
Particle size analysis was performed using the Coulter Multisizer II with a 50 micron aperture using siphon mode. Electrolyte was pre-saturated with the drug of interest, and filtered through a 0.22 micron filter prior to addition of lots for analysis to ensure that no portion of the drug within the lot would dissolve during the analysis.

In data set [1], `COC1=CC(=O)C[C@@H](C)[C@]12Oc1c(Cl)c(OC)cc(OC)c1C2=O` [Griseofulvin Bulk, griseofulvin] returned a Density of 0.80 g/mL. For the same compound, in data set [2], the “Purity (drug integrity post processing)” value was determined as 95.7%. In addition, in data set [3], the “Size (mean particle size of drug particles)” value (shortened to “Size”) was determined as 2.42 microns and the “Surface Area (total surface area of drug particles)” value (“Surface Area” below) is 0.88 m^2/mL of microparticles.

Regarding `CC(=O)O[C@H]1C(=O)[C@@]2(C)[C@H]([C@H](OC(=O)c3ccccc3)[C@]3(O)C[C@H](OC(=O)[C@H](O)[C@@H](NC(=O)c4ccccc4)c4ccccc4)C(C)=C1C3(C)C)[C@]1(OC(C)=O)CO[C@@H]1C[C@@H]2O` [Paclitaxel Bulk, paclitaxel], the “Purity (drug integrity post processing)” value in data set [2] is 100%.

In the case of `COc1ccc2cc([C@H](C)C(=O)O)ccc2c1` [Naproxen Bulk, naproxen], in data set [3], the “Size” value is on record as 2.89 microns and the “Surface Area” value was 0.66 m^2/mL of microparticles.

`C[C@]12C=CC(=O)C=C1CC[C@@H]1[C@@H]2C(=O)C[C@@]2(C)[C@H]1CC[C@]2(O)C(=O)CO` [Prednisone Bulk, prednisone] returned a Density in data set [1] of 0.68 g/mL. Besides, in data set [2], the “Purity (drug integrity post processing)” value is on record as 100%. In addition, in data set [3], the “Size” value is listed as 2.07 microns and the “Surface Area” value is given as 1.43 m^2/mL of microparticles.

The record behind these values is US8821938B2, “Porous drug matrices and methods of manufacture thereof” (Acusphere, Inc., priority 1999, dated 2014).
